As a reminder, the mortality is the percentage killed.

The values below come from US20250185657A1, “PEST CONTROLLING AGENT” (priority 2022, published 2025).

Common to all, as to type: in vivo
Assay [1] concerns Cotton Aphid (Aphis gossypii). Briefly: Cotton aphid control test (leaf piece application treatment). The note with it: 120 h, sprayed on cucumber leaf piece, nymphs, five days after the treatment, 25° C., read-out: insect mortality rate. The procedure: (§1) The insect mortality rate and the feeding damage prevention effect shown in the Biological Test Examples were calculated based on the following expression.
Biological Test Example 1: Cotton Aphid (Aphis gossypii) Control Test (Leaf Piece Application Treatment)
A cucumber leaf was cut into a piece having a diameter of 3.5 cm and placed on absorbent cotton moistened with water. Two adult cotton aphids were released thereon, and allowed to lay nymphs for 24 hours, and then the adults were removed. 2 mL of a diluted solution of the test compound diluted to 200 ppm was applied onto the resulting cucumber leaf by using an spray tower. The cucumber leaf was air-dried and then placed in a plastic cup together with the absorbent cotton, the cup was covered with a lid, and the nymphs were reared in a constant temperature chamber at 25° C.

Assay [2] deals with Tobacco Cutworm (Spodoptera litura). Briefly: Tobacco cutworm control test (leaf piece dipping treatment). The note with it: 120 h, cabbage leaf piece dipped, second instar larvae, five days after the treatment, 25° C., read-out: insect mortality rate. The procedure:
as §1
Biological Test Example 5: Tobacco Cutworm (Spodoptera litura) Control Test (Leaf Piece Dipping Treatment)
A cabbage leaf was cut into a piece having a diameter of 5.0 cm, and this cabbage leaf piece was immersed in 20 mL of a diluted solution of the test compound diluted to 200 ppm, and air-dried. After air-drying, the cabbage leaf piece was placed in a plastic cup, 5 second instar tobacco cutworm larvae were released thereinto, the cup was covered with a lid, and the larvae were reared in a constant temperature chamber at 25° C.

For assay [3], the system named is Diamondback Moth (Plutella xylostella). Briefly: Diamondback moth control test (leaf piece dipping treatment). The note with it: 120 h, cabbage leaf piece dipped, third instar, five days after the treatment, 25° C., read-out: insect mortality rate. The protocol:
as §1
Biological Test Example 3: Diamondback Moth (Plutella xylostella) Control Test (Leaf Piece Dipping Treatment)
A cabbage leaf was cut into a piece having a diameter of 5.0 cm, and this cabbage leaf piece was immersed in 20 mL of a diluted solution of the test compound diluted to 200 ppm, and air-dried. After air-drying, the cabbage leaf piece was placed in a plastic cup, 10 third instar diamondback moth nymphs were released thereinto, the cup was covered with a lid, and the nymphs were reared in a constant temperature chamber at 25° C.

Bounds are passed on as bounds.

`CCS(=O)(=O)c1cc(-c2ccc(F)cc2)cnc1-c1noc(=O)n1-c1ccc(C(F)(F)F)cn1` [Compound 2, 3-(3-(ethylsulfonyl)-5-(4-fluorophenyl)pyridin-2-yl)-4-(5-(trifluoromethyl)pyridin-2-yl)-1,2,4-oxadiazol-5(4H)-one]: the mortality at 200 ppm in assay [1], in assay [2] and in assay [3] was not below 80% throughout.
As to `CCS(=O)(=O)c1cc(-c2ccc(F)cc2)cnc1-c1noc(=S)n1-c1ccc(C(F)(F)F)cn1` [Compound 18, 3-(3-(ethylsulfonyl)-5-(4-fluorophenyl)pyridin-2-yl)-4-(5-(trifluoromethyl)pyridin-2-yl)-1,2,4-oxadiazol-5(4H)-thione], the mortality at 200 ppm in assay [1], in assay [2] and in assay [3] was not below 80% throughout.
On to `CCS(=O)(=O)c1cc(-c2ccc(OC(F)(F)F)cc2)cnc1-c1noc(=O)n1-c1ccc(C(F)(F)F)cn1` [Compound 4, 3-(3-(ethylsulfonyl)-5-(4-(trifluoromethoxy)phenyl)pyridin-2-yl)-4-(5-(trifluoromethyl)pyridin-2-yl)-1,2,4-oxadiazol-5(4H)-one], for which the mortality at 200 ppm in assay [1], in assay [2] and in assay [3] was not below 80% each time.
As to `CCS(=O)(=O)c1cc(-c2ccc(F)cc2)cnc1C1=NC(=COC)C(=O)N1c1ccc(C(F)(F)F)cn1` [Compound 34], the mortality at 200 ppm in assay [3] was not below 80%.
Regarding `CCS(=O)(=O)c1cc(-c2ccc(F)cc2)cnc1C1=NOCN1c1ccc(C(F)(F)F)cn1` [Compound 27, 3-(3-(ethylsulfonyl)-5-(4-fluorophenyl)pyridin-2-yl)-4-(5-(trifluoromethyl)pyridin-2-yl)-4,5-dihydro-1,2,4-oxadiazole], the mortality at 200 ppm in assay [2] and in assay [3] was not below 80% each time.
Consider `CN(C)S(=O)(=O)c1cc(-c2ccc(OC(F)(F)F)cc2)cnc1-c1noc(=O)n1-c1ccc(C(F)(F)F)cn1` [Compound 195, N,N-dimethyl-2-(5-oxo-4-(5-(trifluoromethyl)pyridin-2-yl)-4,5-dihydro-1,2,4-oxadiazol-3-yl)-5-(4-(trifluoromethoxy)phenyl)pyridine-3-sulfonamide], for which the mortality at 200 ppm in assay [2] and in assay [3] was not below 80% each time.
As to `CCS(=O)(=O)c1cc(-c2ccc(F)cc2)cnc1C1=NOCCN1c1ccc(C(F)(F)F)cn1` [Compound 29, 3-(3-(ethylsulfonyl)-5-(4-fluorophenyl)pyridin-2-yl)-4-(5-(trifluoromethyl)pyridin-2-yl)-5,6-dihydro-4H-1,2,4-oxadiazine], the mortality at 200 ppm in assay [1], in assay [2] and in assay [3] was not below 80% each time.
